Patent US4100346A, “Certain 7(o-amino-methyl- or methylaminomethylphenyl- or cyclohexadienyl- or thienylacetamide)-3[1-carboxymethyl-(or ethyl- or propyl-)-tetrazol-5-ylthiomethyl]-3-cephem-4-carboxylic acids” (Bristol-Myers Company, priority 1976, dated 1978)
Converted amounts (≈) assume the structure as drawn. Like-named read-outs stand apart in the source and are kept apart here.

Columns and labels:
Bacteroides Fragilis = test: Growth inhibitory activity, antibiotic dilution technique (obligate anaerobes); format: cell-based; conditions: 3 strains, geometric mean when applicable, read-out: Minimum inhibitory concentration
Experimental: Antibiotic spectrum. […] Procedures were as follows:
c. Obligate anaerobes. The assay was performed on solid medium, consisting of Brain Heart Infusion Broth (BBL) supplemented with 5% defibrinated sheep blood and 1% Ionagar (Colab). […] The plates were incubated at 37° C. for 48 hours under the oxygen-free conditions attained with a Gas-Pak (BBL) Brewer jar system.

Staphylococcus Aureus = test: Effect of inoculum size on susceptibility of Staphylococcus aureus; format: cell-based; conditions: for MIC: Staphylococcus aureus, geometric means, read-out: Minimum inhibitory concentration
[1] = Recovery in urine after intramuscular injection; conditions: rat, im, 10 mg/kg
Arizona hinshawii = test: Growth inhibitory activity, antibiotic dilution technique; conditions: Salmonella enterica, read-out: Minimum inhibitory concentration
Serratia marcescens = test: as above; conditions: read-out: Minimum inhibitory concentration
Erwinia sp. = test: as above; conditions: read-out: Minimum inhibitory concentration
Vibrio cholerae = test: as above; conditions: read-out: Minimum inhibitory concentration
Pseudomonas aeruginosa = test: as above; conditions: read-out: Minimum inhibitory concentration
[2] = tested on: Bordetella bronchiseptica; test: as above; conditions: read-out: Minimum inhibitory concentration
Neisseria gonorrhoeae = test: as above
Klebsiella pneumoniae = test: Effect of inoculum size on susceptibility of Enterobacteriaceae
Enterobacter aerogenes = test: as above; conditions: Klebsiella aerogenes, read-out: Minimum Inhibitory Concentration, Enterobacter aerogenes strain 1
Proteus vulgaris = test: as above
Proteus rettgeri = test: as above; conditions: Providencia rettgeri
[3] = Antibiotic concentration in blood after intramuscular injection; conditions: mouse, im, 20 mg/kg

What does the source list for `Cc1nnc(SCC2=C(C(=O)O)N3C(=O)[C@@H](NC(=O)Cn4cnnn4)[C@H]3SC2)s1` [Cefazolin]?
MIC (Bacteroides Fragilis): 50 µg/mL (≈ 110 µM); MIC (Staphylococcus Aureus; Lacking penicillinase, 3 strains, A, Inoculum of 10^2 organisms): 0.13 µg/mL (≈ 0.286 µM); MIC (Staphylococcus Aureus; Lacking penicillinase, 3 strains, B, inoculum of 10^6 organisms): 0.2 µg/mL (≈ 0.44 µM); MIC (Staphylococcus Aureus; Penicillinase producer, 26 strains, A, Inoculum of 10^2 organisms): 0.22 µg/mL (≈ 0.484 µM); MIC (Staphylococcus Aureus; Penicillinase producer, 26 strains, B, inoculum of 10^6 organisms): 0.79 µg/mL (≈ 1.74 µM); effect of cell concentration on growth inhibitory activity (Staphylococcus Aureus; penicillinase-producing strains): moderately; dose excreted at 24 h [1]: 75%; MIC (Arizona hinshawii): 1 µg/mL (≈ 2.2 µM); MIC (Serratia marcescens): > 125 µg/mL; MIC (Erwinia sp.): 1.5 µg/mL (≈ 3.3 µM); MIC (Vibrio cholerae): 4 µg/mL (≈ 8.8 µM); MIC (Pseudomonas aeruginosa): > 125 µg/mL; MIC [2]: 125 µg/mL (≈ 275 µM); susceptibility of Neisseria gonorrhoeae (Neisseria gonorrhoeae): equally susceptible; MIC (Klebsiella pneumoniae; read-out: Minimum Inhibitory Concentration, Klebsiella pneumoniae strain 1, A, Inoculum of 10^2 organisms): 1 µg/mL (≈ 2.2 µM); MIC (Klebsiella pneumoniae; read-out: Minimum Inhibitory Concentration, Klebsiella pneumoniae strain 1, B, Inoculum of 10^6 organisms): 2 µg/mL (≈ 4.4 µM); MIC (Klebsiella pneumoniae; read-out: Minimum Inhibitory Concentration, Klebsiella pneumoniae strain 2, A, Inoculum of 10^2 organisms): 1 µg/mL (≈ 2.2 µM); MIC (Klebsiella pneumoniae; read-out: Minimum Inhibitory Concentration, Klebsiella pneumoniae strain 2, B, Inoculum of 10^6 organisms): 4 µg/mL (≈ 8.8 µM); MIC (Klebsiella pneumoniae; read-out: Minimum Inhibitory Concentration, Klebsiella pneumoniae strain 3, A, Inoculum of 10^2 organisms): 1 µg/mL (≈ 2.2 µM); MIC (Klebsiella pneumoniae; read-out: Minimum Inhibitory Concentration, Klebsiella pneumoniae strain 3, B, Inoculum of 10^6 organisms): 4 µg/mL (≈ 8.8 µM); MIC (Klebsiella pneumoniae; read-out: Minimum Inhibitory Concentration, Klebsiella pneumoniae strain 4, A, Inoculum of 10^2 organisms): 1 µg/mL (≈ 2.2 µM); MIC (Klebsiella pneumoniae; read-out: Minimum Inhibitory Concentration, Klebsiella pneumoniae strain 4, B, Inoculum of 10^6 organisms): 4 µg/mL (≈ 8.8 µM); MIC (Klebsiella pneumoniae; read-out: Minimum Inhibitory Concentration, Klebsiella pneumoniae strain 5, A, Inoculum of 10^2 organisms): 1 µg/mL (≈ 2.2 µM); MIC (Klebsiella pneumoniae; read-out: Minimum Inhibitory Concentration, Klebsiella pneumoniae strain 5, B, Inoculum of 10^6 organisms): 4 µg/mL (≈ 8.8 µM); MIC (Klebsiella pneumoniae; read-out: Minimum Inhibitory Concentration, Klebsiella pneumoniae strain 6, A, Inoculum of 10^2 organisms): 1 µg/mL (≈ 2.2 µM); MIC (Klebsiella pneumoniae; read-out: Minimum Inhibitory Concentration, Klebsiella pneumoniae strain 6, B, Inoculum of 10^6 organisms): 32 µg/mL (≈ 70.4 µM); MIC (Enterobacter aerogenes; A, Inoculum of 10^2 organisms): 16 µg/mL (≈ 35.2 µM); MIC (Enterobacter aerogenes; B, Inoculum of 10^6 organisms): > 250 µg/mL; MIC (Proteus vulgaris; read-out: Minimum Inhibitory Concentration, Proteus vulgaris strain 1, A, Inoculum of 10^2 organisms): 4 µg/mL (≈ 8.8 µM); MIC (Proteus vulgaris; read-out: Minimum Inhibitory Concentration, Proteus vulgaris strain 1, B, Inoculum of 10^6 organisms): 250 µg/mL (≈ 550 µM); MIC (Proteus vulgaris; read-out: Minimum Inhibitory Concentration, Proteus vulgaris strain 2, A, Inoculum of 10^2 organisms): 8 µg/mL (≈ 17.6 µM); MIC (Proteus vulgaris; read-out: Minimum Inhibitory Concentration, Proteus vulgaris strain 2, B, Inoculum of 10^6 organisms): 32 µg/mL (≈ 70.4 µM); MIC (Proteus vulgaris; read-out: Minimum Inhibitory Concentration, Proteus vulgaris strain 4, A, Inoculum of 10^2 organisms): 8 µg/mL (≈ 17.6 µM); MIC (Proteus vulgaris; read-out: Minimum Inhibitory Concentration, Proteus vulgaris strain 4, B, Inoculum of 10^6 organisms): 32 µg/mL (≈ 70.4 µM); MIC (Proteus rettgeri; read-out: Minimum Inhibitory Concentration, Proteus rettgeri strain 1, A, Inoculum of 10^2 organisms): 0.5 µg/mL (≈ 1.1 µM); MIC (Proteus rettgeri; read-out: Minimum Inhibitory Concentration, Proteus rettgeri strain 1, B, Inoculum of 10^6 organisms): > 250 µg/mL; MIC (Proteus rettgeri; read-out: Minimum Inhibitory Concentration, Proteus rettgeri strain 2, A, Inoculum of 10^2 organisms): 0.25 µg/mL (≈ 0.55 µM); MIC (Proteus rettgeri; read-out: Minimum Inhibitory Concentration, Proteus rettgeri strain 2, B, Inoculum of 10^6 organisms): > 250 µg/mL; MIC (Proteus rettgeri; read-out: Minimum Inhibitory Concentration, Proteus rettgeri strain 3, A, Inoculum of 10^2 organisms): 2 µg/mL (≈ 4.4 µM); MIC (Proteus rettgeri; read-out: Minimum Inhibitory Concentration, Proteus rettgeri strain 3, B, Inoculum of 10^6 organisms): > 250 µg/mL; Cmax [3]: 31000 ng/mL
